Literature values, collected in patent US20060246003A1, “Composition containing anti-dementia drug” (priority 2004, published 2006).
Structures can show the parent of a compound that is named as a salt.

System: patients with moderate to severe Alzheimer-type dementia
Conditions: memantine hydrochloride added in patients already administered donepezil hydrochloride, compared to placebo group

## CC12CC3CC(C)(C1)CC(N)(C3)C2 [memantine hydrochloride]
  cognitive ability and activities of daily living: improved
